Measurements published in publication PMC11852235, “Discovery of Effective Inhibitors Against Phosphodiesterase 9, a Potential Therapeutic Target of Alzheimer’s Disease with Antioxidant Capacities” (Antioxidants, 2025).
pIC50: −log10 of the molar value. Read-outs that look alike come from different tables or passages of the source.

Legend:
PDE9 = settings: cited from earlier work
BuChE = system: BuChE; parameters: method as in PMID 31250747; settings: Figure 1; cited from earlier work
AChE = system: AChE; parameters: method as in PMID 31250747; settings: Figure 1; cited from earlier work
HDAC6 = system: HDAC6; parameters: method as in PMID 31441641; settings: Figure 1; cited from earlier work
[1] = molecular target: T1, PDE9 (catalytic domain of PDE9A2) (Homo sapiens, UniProt O76083); test: Enzymatic assay against PDE9 (3H-cGMP hydrolysis, scintillation counting); assay type: biochemical; settings: 0.25 h, read-out: Inhibition ratio against PDE9; for inhibition at 0.01 µM: at a concentration of 0.01 μM; for inhibition at 0.1 µM: at a concentration of 0.1 μM
T1 construct: PDE9 recombinant catalytic domain (amino acid 181–506); made in house; host or cells: E. coli BL21 (Codonplus)
Protocol: In brief, E. coli strain BL21 (Codonplus), which carrying with recombinant pET-PDE9A2 plasmid, was grown in LB medium (containing 100 μg/mL ampicillin and 0.4% glucose) at 37 °C until an OD600 achieved 0.6–0.8. Then, the temperature was turned down to 15 °C, and 0.1 mM iso-propyl-b-D-thiogalactopyranoside was added to LB medium to induce the expression of PDE9A2 protein. Bacteria were induced for 20 h and collected for purified PDE9A2 recombinant protein by a Ni-NTA column (Qiagen, Venlo, The Netherlands).
As for the enzymatic assays, ^3H-cGMP (20,000–30,000 cpm, GE Healthcare), the substrate for enzymatic assays against PDE9A2, were diluted in an assay buffer (containing 50 mM Tris-HCl (pH 8.0), 10 mM MgCl2, and 1 mM DTT). And then, the substrate ^3H-cGMP, catalytic domain of PDE9A2, and different concentrations of tested compounds were incubated at room temperature for 15 min. To terminate the reaction, 0.2 M ZnSO4 and 0.2 N Ba(OH)2 were added to the mixture, leaving unreacted ^3H-cGMP in the supernatant. […] Each compound was measured at a minimum of eight concentrations for the IC50 calculation and repeated at least three times.
4.Enzymatic assays against PDE9
The assay buffer contains 50 mM Tris-HCl (pH 8.0), 10 mM MgCl2 or 4 mM MnCl2, 1 mM DTT, and 10-20 nM 3H-cGMP (15000−30000 cpm/assay, CPM control). The reaction was carried out at room temperature for 15 min and then terminated by addition of 0.2 M ZnSO4. The reaction product 3H-GMP was precipitated out by […], whereas unreacted 3H-cGMP remained in the supernatant. The radioactivity in the supernatant was measured in 2.5 […]
(CPMenzyme). For the measurement of IC50 of inhibitors, at least seven concentrations of inhibitors were used in the presence of 3H-cGMP. The enzyme concentration in a range of 10− 100 ng/mL, which hydrolyzed 50- 70% of the substrate, was chosen for each inhibitory assay. The radioactivity was recorded as CPMinhibitor. The IC50 values for PDE9 were calculated using a nonlinear regression analysis.
Inhibition = […] × 100%

[2] = Antioxidant activity, ORAC-FL method; settings: Trolox as standard
Protocol: The modified Oxygen Radical Absorbance Capacity Fluorescein (ORAC-FL) method was used for antioxidant activity test. In brief, the mixture of test compounds (20 μL) and fluorescein (120 μL, final concentration of 150 nM) was added into a black 96-well plate and incubated for 15 min at 37 °C. Then, 60 μL of 2,2′-azobis(2-amidinopropane) dihydrochloride (AAPH) solution (12 mM) was added rapidly to induce the reaction. The fluorescence with an excitation wavelength of 485 nm and emission at 535 nm was measured in Spectrafluor Plus plate reader (Tecan, Crailsheim, Germany) every minute for 4 h. Integration of the area under the curve (AUC) was […] 1 to 8 μM Trolox was used as a standard. Each compound was tested at 1–10 μM at least in three independent assays. The ORAC-FL values of each compound were calculated according to Equation (1) and expressed as Trolox equivalents.(1) ORAC-FL value=AUCsample−AUCblank/AUCTrolox−AUCblank×ConcentrationTrolox/Concentrationsample

[3] = Figure 1, current PDE9 inhibitors

T1 sequence (O76083 241-566): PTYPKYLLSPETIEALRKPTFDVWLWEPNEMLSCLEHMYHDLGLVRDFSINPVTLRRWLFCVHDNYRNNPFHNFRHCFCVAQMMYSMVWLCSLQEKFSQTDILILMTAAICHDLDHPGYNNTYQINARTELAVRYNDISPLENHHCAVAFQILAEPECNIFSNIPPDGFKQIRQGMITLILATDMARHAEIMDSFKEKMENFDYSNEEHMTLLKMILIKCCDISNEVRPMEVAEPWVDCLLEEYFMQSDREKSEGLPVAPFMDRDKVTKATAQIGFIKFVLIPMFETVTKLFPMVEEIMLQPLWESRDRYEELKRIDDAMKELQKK

Row | SMILES | pIC50 (PDE9; [3]) | inhibition at 0.1 µM [1] | ORAC [2] | also measured
1 | O=c1[nH]c(Cc2ccccn2)nc2c1cnn2C1CCOCC1 [Compound 2, Osoresnontrine] | 7.19 |  |  | 
2 | COc1cc(CNc2nc3c(cnn3C3CCCC3)c(=O)[nH]2)ccc1OC(=O)N(C)C [Compound 4] | 7.77 |  |  | pIC50 (BuChE): 6.02
3 | O=c1[nH]c(COCCC2CCN(Cc3ccccc3)CC2)nc2c1cnn2C1CCCC1 [Compound 5] | 6.55 |  |  | pIC50 (AChE): 6.65
4 | C[C@@H]1CN(Cc2ccc(C(=O)NO)cc2)C[C@H]1c1nc2c(cnn2C2CCCC2)c(=O)[nH]1 [Compound 6] | 6.97 |  |  | pIC50 (HDAC6): 7.40
5 | C[C@@H](NCc1c[nH]c2ccccc12)c1nc2c(cnn2C2CCCC2)c(=O)[nH]1 [Compound 18a, (R)-6-(1-(((1H-indol-3-yl)methyl)amino)ethyl)-1-cyclopentyl-1,5-dihydro-4H-pyrazolo[3,4-d]pyrimidin-4-one] |  | ~50% | 0.60 ± 0.06 μmol of Trolox equiv/μmol tested compound | inhibition at 0.01 µM [1]: 46%
6 | C[C@@H](NCc1c[nH]c2ccc(F)cc12)c1nc2c(cnn2C2CCCC2)c(=O)[nH]1 [Compound 18b, (R)-1-cyclopentyl-6-(1-(((5-fluoro-1H-indol-3-yl)methyl)amino)ethyl)-1,5-dihydro-4H-pyrazolo[3,4-d]pyrimidin-4-one] |  | 76% | 0.88 ± 0.08 μmol of Trolox equiv/μmol tested compound | inhibition at 0.01 µM [1]: 61%
7 | C[C@@H](NCc1n[nH]c2ccccc12)c1nc2c(cnn2C2CCCC2)c(=O)[nH]1 [Compound 18e, (R)-6-(1-(((1H-indazol-3-yl)methyl)amino)ethyl)-1-cyclopentyl-1,5-dihydro-4H-pyrazolo[3,4-d]pyrimidin-4-one] |  | ~50% | 0.15 ± 0.03 μmol of Trolox equiv/μmol tested compound | 
8 | COc1ccc2[nH]nc(CN[C@H](C)c3nc4c(cnn4C4CCCC4)c(=O)[nH]3)c2c1 [Compound 18f, (R)-1-cyclopentyl-6-(1-(((5-methoxy-1H-indazol-3-yl)methyl)amino)ethyl)-1,5-dihydro-4H-pyrazolo[3,4-d]pyrimidin-4-one] |  | < 30% | 0.24 ± 0.02 μmol of Trolox equiv/μmol tested compound | 
9 | CC(Nc1nc2c(cnn2C2CCCC2)c(=O)[nH]1)c1ccc(Cl)cc1 (stereo not drawn) [Compound C33] |  |  |  | pIC50 (PDE9; previously reported): 7.80
